The source of these data is ChEMBL document CHEMBL1135112, “Shikonin derivatives: synthesis and inhibition of human telomerase” (Bioorg Med Chem Lett, 2002).

In assay [1] the test system is HL-60. Nature of the assay: The compound was tested in vitro for its cytotoxicity against human HL-60 cancer cell line by MTT method at 1 uM concentration; Slight inhibition. Format: functional, cell-based.
In assay [2] the test system is P388. Nature of the assay: The compound was tested in vitro for its cytotoxicity against […] P-388 cancer cell line by MTT method at 1 uM concentration; No inhibition. It is filed as functional, cell-based. As to conditions: Mus musculus.
In assay [3] the test system is A549. Nature of the assay: The compound was tested in vitro for its cytotoxicity against human A-549 cancer cell line by MTT method at 1 uM concentration; No inhibition. It is filed as functional, cell-based.
For the next assay, the system named is SGC-7901. The assay can be described thus: Tested in vitro for inhibitory effect on the growth of human gastric carcinoma SGC-7901 cell line. It is filed as functional, cell-based.
Assay [4] concerns A549. Nature of the assay: The compound was tested in vitro for its cytotoxicity against human A-549 cancer cell line by MTT method at 1 uM concentration; Significant inhibition. Format: functional, cell-based.
Assay [5] has as its system A549. Nature of the assay: Tested in vitro for inhibitory effect on the growth of human A-549 cancer cell line. Format: functional, cell-based.
For the next assay, the system named is WI-38. The assay can be described thus: Tested in vitro for inhibitory effect on the growth of WI-38 cell line; No cytotoxicity. It is filed as functional, cell-based, Homo sapiens.
The next assay concerns MCF7. The assay can be described thus: Tested in vitro for inhibitory effect on the growth of MCF-7 cell line. Format: functional, cell-based. As to conditions: Homo sapiens.
The next assay has as its system Bel-7402. The assay can be described thus: Tested in vitro for inhibitory effect on the growth of BEL -7402 cell line. Format: functional, cell-based. As to conditions: Homo sapiens.
Another assay deals with K562. Nature of the assay: Tested in vitro for inhibitory effect on the growth of K-562 cell line. Format: functional, cell-based. As to conditions: Homo sapiens.
The test system of assay [6] is A549. Nature of the assay: The compound was tested in vitro for its cytotoxicity against human A-549 cancer cell line by MTT method at 1 uM concentration; Slight inhibition. Format: functional, cell-based.
Assay [7] deals with P388. The assay can be described thus: The compound was tested in vitro for its cytotoxicity against […] P-388 cancer cell line by MTT method at 1 uM concentration; Slight inhibition. It is filed as functional, cell-based. As to conditions: Mus musculus.
The target of assay [8] is Telomerase reverse transcriptase (Homo sapiens, UniProt O14746). The assay can be described thus: Tested for 50% inhibition against Telomerase.
Assay [9] addresses T1, DNA polymerase I, thermostable (Thermus aquaticus, UniProt P19821). The assay can be described thus: Tested for 50% inhibition against Taq DNA polymerase at the concentration of 10 uM; No inhibition.
Assay [10] addresses T1, DNA polymerase I, thermostable. The assay can be described thus: Tested for 50% inhibition against Taq DNA polymerase at the concentration of 50 uM; No inhibition.
The test system of assay [11] is HL-60. Nature of the assay: The compound was tested in vitro for its cytotoxicity against human HL-60 cancer cell line by MTT method at 1 uM concentration; Significant inhibition. Format: functional, cell-based. (In general: Tetrazolium dyes change colour on reduction, which living cells bring about.)
The target in assay [12] is T1, DNA polymerase I, thermostable. Nature of the assay: Tested for 50% inhibition against Taq DNA polymerase at the concentration of 20 uM; No inhibition.
Assay [13] has as its system P388. The assay can be described thus: The compound was tested in vitro for its cytotoxicity against […] P-388 cancer cell line by MTT method at 1 uM concentration; Total inhibition. It is filed as functional, cell-based.
The subject of assay [14] is HL-60. Nature of the assay: The compound was tested in vitro for its cytotoxicity against human HL-60 cancer cell line by MTT method at 1 uM concentration; Total inhibition. Format: functional, cell-based.
Assay [15] has as its system HL-60. The assay can be described thus: The compound was tested in vitro for its cytotoxicity against human HL-60 cancer cell line by MTT method at 1 uM concentration; No inhibition. Format: functional, cell-based.

Activity calls are given as the source filed them. No cut-off for these calls is given here.

T1 sequence (P19821 whole entry): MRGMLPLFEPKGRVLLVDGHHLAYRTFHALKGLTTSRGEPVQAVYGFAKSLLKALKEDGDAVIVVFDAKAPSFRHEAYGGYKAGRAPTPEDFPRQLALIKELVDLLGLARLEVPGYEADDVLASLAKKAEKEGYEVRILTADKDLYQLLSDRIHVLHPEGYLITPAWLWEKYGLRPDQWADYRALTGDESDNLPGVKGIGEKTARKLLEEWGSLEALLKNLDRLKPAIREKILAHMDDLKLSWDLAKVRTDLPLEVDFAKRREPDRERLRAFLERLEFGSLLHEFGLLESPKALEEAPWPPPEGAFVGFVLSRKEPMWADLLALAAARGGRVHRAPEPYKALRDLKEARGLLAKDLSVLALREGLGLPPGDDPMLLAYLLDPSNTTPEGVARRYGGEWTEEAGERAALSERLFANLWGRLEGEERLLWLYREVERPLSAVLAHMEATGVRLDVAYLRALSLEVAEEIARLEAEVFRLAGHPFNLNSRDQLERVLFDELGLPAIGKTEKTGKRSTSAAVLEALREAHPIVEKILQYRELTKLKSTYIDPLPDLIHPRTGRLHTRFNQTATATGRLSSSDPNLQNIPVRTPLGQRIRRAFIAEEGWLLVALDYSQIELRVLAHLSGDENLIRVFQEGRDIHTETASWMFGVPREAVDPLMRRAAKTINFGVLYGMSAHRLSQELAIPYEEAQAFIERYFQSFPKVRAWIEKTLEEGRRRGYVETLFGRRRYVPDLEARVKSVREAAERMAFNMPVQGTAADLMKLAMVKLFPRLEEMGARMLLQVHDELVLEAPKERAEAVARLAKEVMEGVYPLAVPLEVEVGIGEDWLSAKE
Telomerase reverse transcriptase, sequence (O14746 whole entry): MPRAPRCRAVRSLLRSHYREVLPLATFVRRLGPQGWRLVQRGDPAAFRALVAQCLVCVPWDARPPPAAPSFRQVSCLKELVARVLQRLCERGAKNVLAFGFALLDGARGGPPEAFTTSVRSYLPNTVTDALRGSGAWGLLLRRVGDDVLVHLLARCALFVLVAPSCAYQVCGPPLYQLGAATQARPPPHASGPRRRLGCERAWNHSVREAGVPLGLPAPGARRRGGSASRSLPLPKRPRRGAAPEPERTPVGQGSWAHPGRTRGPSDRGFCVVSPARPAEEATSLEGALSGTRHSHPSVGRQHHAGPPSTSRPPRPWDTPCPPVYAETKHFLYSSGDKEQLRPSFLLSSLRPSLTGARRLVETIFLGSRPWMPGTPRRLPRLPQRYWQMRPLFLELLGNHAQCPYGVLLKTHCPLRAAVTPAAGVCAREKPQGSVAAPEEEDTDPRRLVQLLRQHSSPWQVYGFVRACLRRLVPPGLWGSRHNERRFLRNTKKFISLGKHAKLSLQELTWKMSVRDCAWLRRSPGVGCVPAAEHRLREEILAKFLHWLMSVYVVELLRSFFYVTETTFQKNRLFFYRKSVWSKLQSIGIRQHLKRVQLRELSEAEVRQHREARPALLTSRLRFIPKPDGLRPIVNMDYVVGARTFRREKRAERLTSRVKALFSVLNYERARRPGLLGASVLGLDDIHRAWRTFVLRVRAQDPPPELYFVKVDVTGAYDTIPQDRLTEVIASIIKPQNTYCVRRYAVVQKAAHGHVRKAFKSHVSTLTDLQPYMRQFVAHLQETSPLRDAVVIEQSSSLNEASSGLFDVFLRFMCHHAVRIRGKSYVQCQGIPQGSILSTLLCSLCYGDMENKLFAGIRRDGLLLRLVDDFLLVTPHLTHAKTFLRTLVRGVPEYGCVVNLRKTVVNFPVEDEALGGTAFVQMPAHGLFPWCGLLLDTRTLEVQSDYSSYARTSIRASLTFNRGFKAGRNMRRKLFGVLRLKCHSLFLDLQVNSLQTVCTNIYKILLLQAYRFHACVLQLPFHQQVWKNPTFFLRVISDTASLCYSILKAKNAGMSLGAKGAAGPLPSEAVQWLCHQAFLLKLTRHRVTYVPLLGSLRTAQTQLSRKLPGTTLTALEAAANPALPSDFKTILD

For the molecule `CC(C)=CCC(OC(=O)c1cccnc1)C1=CC(=O)c2c(O)ccc(O)c2C1=O` (centres undefined), in the assay with HL-60 [1], the Activity entry was “Slight inhibition”. Moreover, the result in the assay on P388 [2] and in the assay on A549 [3] was inactive.

Turning to `CC(C)=CCC(OC(=O)CCCCC(C)C)C1=CC(=O)c2c(O)ccc(O)c2C1=O` (centres undefined), the Activity entry in the assay with HL-60 [1] and in the assay with A549 [4] was “Significant inhibition” throughout. Also, the IC50 – broadly, the concentration that inhibits the measured activity by half – in the assay on SGC-7901 was 0.001 µM; in the assay with A549 [5], 0.016 µM; with WI-38, “No cytotoxicity”; with MCF7, 250 µM; in the assay on Bel-7402 it was 0.00017 µM; in the assay on K562, 18 µM. Also, the result in the assay on P388 [2] was inactive.

Regarding `CCCCCCCCCCCC(=O)OC(CC=C(C)C)C1=CC(=O)c2c(O)ccc(O)c2C1=O` (centres undefined), the Activity result in the assay with HL-60 [1] and in the assay on A549 [6] was “Slight inhibition” in each case. The result in the assay on P388 [2] was inactive.

As for `CC(C)=CCC(OC(=O)COCc1ccccc1)C1=CC(=O)c2c(O)ccc(O)c2C1=O` (centres undefined), the outcome in the assay on P388 [2] and in the assay with A549 [3] was inactive.

`CC(C)=CCC(OC(=O)c1cccc2ccccc12)C1=CC(=O)c2c(O)ccc(O)c2C1=O` (centres undefined): the Activity result in the assay with HL-60 [1] is “Slight inhibition”. The result with P388 [2] and in the assay with A549 [3] was inactive.

On to `CC(C)=CC[C@H](O)C1=CC(=O)c2c(O)ccc(O)c2C1=O`, for which the Activity entry in the assay on HL-60 [1], in the assay with A549 [6] and in the assay on P388 [7] was “Slight inhibition” in each case.

Take `CC(C)=CC[C@@H](O)C1=CC(=O)c2c(O)ccc(O)c2C1=O`: the Activity result in the assay with HL-60 [1], in the assay on A549 [6] and in the assay on P388 [7] was “Slight inhibition” each time.

For `CC(C)=CCC(OC(=O)Cc1c[nH]c2ccccc12)C1=CC(=O)c2c(O)ccc(O)c2C1=O` (centres undefined), the Activity result in the assay on HL-60 [1] was “Slight inhibition”. Further, the outcome with P388 [2] and in the assay with A549 [3] was inactive.

As to `CC(=O)O[C@H](CC=C(C)C)C1=CC(=O)c2c(O)ccc(O)c2C1=O` [ACETYLSHIKONIN], the IC50 in assay [8] was 37.3 µM; in the assay on SGC-7901, 0.29 µM; in assay [9], “Not Active”; in [10], “Not Active”; in [12], “Not Active”; with A549 [5], 39 µM. Further, the IC50 result is “No cytotoxicity” in the assay with WI-38, 31 µM in the assay with MCF7, 0.068 µM with Bel-7402 and 29 µM with K562. Also, the Activity result in the assay with A549 [4], in the assay on HL-60 [11] and with P388 [7] was “Significant inhibition” each time.

Take `CC(C)=CCC(OC(=O)c1ccc2ccccc2c1)C1=CC(=O)c2c(O)ccc(O)c2C1=O` (centres undefined): in the assay with HL-60 [1], the Activity result is recorded as “Slight inhibition”. Also, the IC50 in the assay with SGC-7901 is 49 µM; with A549 [5], 390 µM; with WI-38 it was “No cytotoxicity”; in the assay with MCF7, 93 µM; in the assay with Bel-7402 it was 67 µM; with K562, 31 µM. For the same molecule, the outcome in the assay with P388 [2] and with A549 [3] was inactive.

For the molecule `CC1(C)CC[C@@H](C2=CC(=O)c3c(O)ccc(O)c3C2=O)O1`, the Activity result with P388 [13] and with HL-60 [14] was “Total inhibition” throughout. Moreover, the result in the assay with A549 [3] was inactive.

With `CC(C)=CCC(O)C1=CC(=O)c2c(O)ccc(O)c2C1=O` (centres undefined), the Activity entry in the assay with HL-60 [1], in the assay on A549 [6] and in the assay with P388 [7] was “Slight inhibition” each time.

As for `CCCC(=O)OC(CC=C(C)C)C1=CC(=O)c2c(O)ccc(O)c2C1=O` (centres undefined), the Activity entry with HL-60 [1] is reported as “Slight inhibition”. For the same molecule, the result in the assay with P388 [2] and in the assay with A549 [3] was inactive.

For the molecule `CC(C)=CCC(OC(=O)c1ccccc1)C1=CC(=O)c2c(O)ccc(O)c2C1=O` (centres undefined), the outcome in the assay with P388 [2], with A549 [3] and in the assay with HL-60 [15] was inactive.

With `CC1(C)CC[C@H](C2=CC(=O)c3c(O)ccc(O)c3C2=O)O1`, the Activity result in the assay on P388 [13] and in the assay on HL-60 [14] was “Total inhibition” throughout. The result in the assay on A549 [3] was inactive.

In the case of `CC(C)=CCC(OC(=O)COc1ccc2ccccc2c1)C1=CC(=O)c2c(O)ccc(O)c2C1=O` (centres undefined), the Activity entry in the assay with HL-60 [1] is reported as “Slight inhibition”. Besides, the outcome with P388 [2] and in the assay with A549 [3] was inactive.
